The values that follow come from patent publication US12673947B2 (Cytosinlab Therapeutics Co., Ltd., priority 2020, dated 2026).

One assay deals with T1, FLT3 (Homo sapiens, UniProt P36888).
T1 construct: purchased Carna 08-145
T1 sequence (P36888 27-993): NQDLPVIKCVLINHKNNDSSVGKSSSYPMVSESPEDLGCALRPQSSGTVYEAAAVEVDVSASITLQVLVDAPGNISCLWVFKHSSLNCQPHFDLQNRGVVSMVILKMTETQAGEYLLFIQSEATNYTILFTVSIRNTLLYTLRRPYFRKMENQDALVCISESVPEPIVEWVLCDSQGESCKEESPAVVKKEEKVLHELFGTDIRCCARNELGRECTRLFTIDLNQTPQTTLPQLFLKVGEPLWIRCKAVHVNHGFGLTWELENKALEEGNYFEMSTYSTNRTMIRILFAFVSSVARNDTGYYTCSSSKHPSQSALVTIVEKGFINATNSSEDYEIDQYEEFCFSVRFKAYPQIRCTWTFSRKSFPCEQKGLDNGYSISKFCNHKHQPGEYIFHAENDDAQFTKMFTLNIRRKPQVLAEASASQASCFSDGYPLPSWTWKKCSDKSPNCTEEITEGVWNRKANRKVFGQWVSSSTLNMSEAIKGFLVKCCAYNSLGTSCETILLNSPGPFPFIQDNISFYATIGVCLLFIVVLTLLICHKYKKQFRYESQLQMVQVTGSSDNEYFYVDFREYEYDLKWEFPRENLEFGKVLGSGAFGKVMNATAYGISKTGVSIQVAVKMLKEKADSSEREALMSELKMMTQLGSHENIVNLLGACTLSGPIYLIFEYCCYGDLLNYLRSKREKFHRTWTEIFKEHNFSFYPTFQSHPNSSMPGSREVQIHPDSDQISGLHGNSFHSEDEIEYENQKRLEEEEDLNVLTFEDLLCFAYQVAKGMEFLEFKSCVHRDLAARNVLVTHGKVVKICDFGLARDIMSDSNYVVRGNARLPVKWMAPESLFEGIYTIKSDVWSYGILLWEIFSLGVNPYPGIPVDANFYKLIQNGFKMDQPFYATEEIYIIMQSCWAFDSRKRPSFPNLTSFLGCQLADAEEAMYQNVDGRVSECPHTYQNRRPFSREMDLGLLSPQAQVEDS
Kind of assay: FLT3 kinase in vitro inhibitory activity experiment (Caliper mobility shift, conversion rate). It counts as biochemical. Particulars: IC50 class, read-out: Enzyme activity FLT3. As to the method:
Biological Test Example 1: FLT3 Kinase In Vitro Inhibitory Activity Experiment
Centrifuge (manufacturer: Eppendorf, model: 5430), microplate reader (manufacturer: Perkin Elmer, model: Caliper EZ Reader II), Echo 550 (manufacturer: Labcyte, model: Echo 550)
1. Kinase Reaction Process
• (1) 1×Kinase buffer was prepared. • (2) Preparation of the serial compound dilutions: the initial stock (the concentration of the tested compound was 1 μM) was diluted by 3-fold into 10 concentrations, and was single-well detected. The compounds were series diluted to solutions of 10 different concentration (100-folds final concentration) in 384-well plates. 250 nl of solution was transferred to each well of 384-well plate by Echo550. 100% DMSO (250 nl) was added to negative control wells and positive control wells respectively. • (3) Kinase solution (2.5 times final concentration) was prepared with 1×Kinase buffer. • (4) 10 μL of kinase solution (2.5 times final concentration) was added to compound wells and positive control wells respectively: 1×Kinase buffer (10 μL) was added to the negative control wells. • (5) The solution was centrifuged at 1000 rpm for 30 seconds, shaked and mixed, and incubated at room temperature for 10 minutes. • (6) The mixed solution of ATP and Kinase substrate 2 (25/15 times final concentration) was prepared with 1×Kinase buffer. • (7) 15 μL of mixed solution ATP and Kinase substrate 2 (25/15 times final concentration) was added to initiated the reaction. • (8) 384 well plate was centrifuged at 1000 rpm for 30 seconds, shaked and mixed, then incubated at room temperature for 30 minutes. • (9) Stop solution (30 μL) was added to stop kinase reaction, and the solution was centrifuged at 1000 rpm for 30 seconds, shaked and mixed. • (10) The conversion rate was read with Caliper EZ Reader II. 2. Data Analysis Formula for Calculation
Wherein: Conversion %_sample is the reading of the sample conversion; Conversion %_min: negative control well.
`CCc1nc2c(N)ncc(-c3cnn(C4C[C@H]5CC[C@@H](C4)N5)c3)c2nc1N[C@@H]1CC[C@H](O)C1` (single isomer, unassigned) [Compound 162]: the IC50 is not above 10 nM.

For the compound `CCc1nc2c(N)ncc(-c3cnn(C4C[C@H]5CC[C@@H](C4)N5)c3)c2nc1N[C@@H]1CC[C@H](O)C1` (single isomer, unassigned) [Compound 163], the IC50 is not above 10 nM.

For `CCc1nc2c(N)ncc(-c3cnn(C4C[C@H]5CC[C@@H](C4)N5C)c3)c2nc1N[C@@H]1CC[C@H](O)C1` (single isomer, unassigned) [Compound 164], the IC50 is not above 10 nM.

With `CCc1nc2c(N)ncc(-c3cnn(C4C[C@H]5CC[C@@H](C4)N5C)c3)c2nc1N[C@@H]1CC[C@H](O)C1` (single isomer, unassigned) [Compound 165], the IC50 was not above 10 nM.

In the case of `CCc1nc2c(N)ncc(-c3cnn(C4CCC(C)(O)CC4)c3)c2nc1N[C@@H]1CC[C@H](O)C1` (single isomer, unassigned) [Compound 284], the IC50 is not above 10 nM.

On to `CCc1nc2c(N)ncc(-c3ccc(N4CCC(N5CCN(C)CC5)CC4)c(S(C)(=O)=O)c3)c2nc1NC1CCOCC1` [Compound 18, 3-ethyl-8-(4-(4-(4-methylpiperazine-1-yl)piperidine-1-yl)-3-(methylsulfyl)phenyl)-N2-(tetrahydro-2H-pyran-4-yl) pyridino [3,4-b] pyrazine-2,5-diamine], for which the IC50 fell in the range of 10 to 100 nM.

With `CCc1nc2c(N)ncc(-c3ccc(N4CCC(N5CCN(C)CC5)CC4)c(C(C)(C)O)c3)c2nc1NC1CCOCC1` [Compound 19, 2-(5-(5-amino-3-ethyl-2-((tetrahydro-2H-pyran-4-yl)amino)pyridino[3,4-b]pyrazine-8-yl)-2-(4-(4-methylpiperazine-1-yl)piperidine-1-yl)phenyl)propan-2-ol], the IC50 was not above 10 nM.

As for `COc1cc(-c2cnc(N)c3ncc(NC4CCOCC4)nc23)ccc1N1CCC(N2CCN(C)CC2)CC1` [Compound 25], the IC50 was in the range of 10 to 100 nM.

Regarding `CCc1nc2c(N)ncc(-c3ccn(C)c3)c2nc1NC1CCOCC1` [Compound 56], the IC50 lay in the range of 10 to 100 nM.

Consider `CCc1nc2c(N)ncc(-c3cnn(C)c3)c2nc1NC1CCOCC1` [Compound 57], for which the IC50 was in the range of 10 to 100 nM.

`CCc1nc2c(N)ncc(-c3ccc4c(c3)OCCN4C)c2nc1NC1CCOCC1` [Compound 61]: the IC50 lay in the range of 10 to 100 nM.

Take `CCc1nc2c(N)ncc(-c3ccc(N4CCC(N5CCN(C)CC5)CC4)c(OC)c3)c2nc1NC` [Compound 76]: the IC50 is 10 to 100 nM.

In the case of `CCc1nc2c(N)ncc(-c3ccc(N4CCC(N5CCN(C)CC5)CC4)c(OC)c3)c2nc1N[C@H]1CC[C@@H](O)CC1` [Compound 82], the IC50 is not above 10 nM.

For the compound `CCc1nc2c(N)ncc(-c3cnn(CC4CCN(C)CC4)c3)c2nc1NC1CCOCC1` [Compound 137], the IC50 was not above 10 nM.

`CCc1nc2c(N)ncc(Br)c2nc1N[C@@H]1CC[C@H](O)C1` [Compound 151, (1S, 3R)-3-((5-amino-8-bromo-3-ethylpyridino[3,4-b]pyrazine-2-yl)amino)cyclopentan-1-ol]: the IC50 fell in the range of 100 to 500 nM.

In the case of `CCc1nc2c(N)ncc(-c3cnn(CC4CCNCC4)c3)c2nc1NC1CCOCC1` [Compound 154], the IC50 is not above 10 nM.

In the case of `CCc1nc2c(N)ncc(-c3cnn(C4CCN(c5cc(F)cc(F)c5)CC4)c3)c2nc1N[C@@H]1CC[C@H](O)C1` [Compound 173], the IC50 was not above 10 nM.

As to `CCc1nc2c(N)ncc(-c3cnn(C4CCN(CCO)CC4)c3)c2nc1N[C@H]1CCOC1` [Compound 229], the IC50 was not above 10 nM.

With `CCc1nc2c(N)ncc(-c3cnn(C(C)C)c3)c2nc1N[C@H]1CCOC1` [Compound 230], the IC50 is not above 10 nM.

Turning to `CCc1nc2c(N)ncc(-c3cnn(C4COC4)c3)c2nc1N[C@H]1CCOC1` [Compound 231], the IC50 was not above 10 nM.

In the case of `CCc1nc2c(N)ncc(-c3cnn(C4CCN(C5CCN(C)CC5)CC4)c3)c2nc1N[C@@H]1CCOC1` [Compound 250], the IC50 was not above 10 nM.

`CCc1nc2c(N)ncc(-c3ccc(N4CCC(N5CCN(C)CC5)CC4)c(OC)c3)c2nc1N[C@H]1CCC[C@@H](O)C1` [Compound 255]: the IC50 was not above 10 nM.

As for `CCc1nc2c(N)ncc(-c3ccc(N4CCC(N5CCN(C)CC5)CC4)c(OC)c3)c2nc1N[C@H]1CCC[C@H](O)C1` [Compound 256], the IC50 is not above 10 nM.

As to `CCc1nc2c(N)ncc(-c3cnn(C4CCNCC4)c3)c2nc1N[C@@H]1CCOC1` [Compound 258], the IC50 is not above 10 nM.

On to `CCc1nc2c(N)ncc(-c3cnn(C4CCNCC4)c3)c2nc1N[C@H]1CCOC1` [Compound 259, (S)-3-ethyl-8-(1-(piperidin-4-yl)-1H-pyrazol-4-yl)-N2-(tetrahydrofuran-3-yl)pyridino[3,4-b]pyrazin-2,5-diamine], for which the IC50 was not above 10 nM.

Take `CCc1nc2c(Nc3cccnc3)ncc(-c3cnn(C4CCNCC4)c3)c2nc1N[C@@H]1CC[C@H](O)C1` [Compound 262]: the IC50 was 10 to 100 nM.

`CCc1nc2c(N)nccc2nc1N[C@@H]1CC[C@H](O)C1` [Compound 263, (1S,3R)-3-((5-amino-3-ethylpyridino[3,4-b]pyrazine-2-yl)amino)cyclopentan-1-ol]: the IC50 was more than 500 nM.

As to `CCc1nc2c(N)ncc(-c3cnn(C4CCN(C)CC4)c3)c2nc1N(C)CC(C)(C)O` [Compound 264], the IC50 was not above 10 nM.

The subject of another assay is MV4;11 cells. Kind of assay: MV4;11 in vitro inhibition of proliferation assay (CellTiter-Glo, 72 hours). The format is cell-based. To be noted: Homo sapiens, MV4-11, 72 h, IC50 class, read-out: Inhibitory activity of cell proliferation MV4;11. From the text: Biological Test Example 2: MV4;11 In Vitro Inhibition of Proliferation Assay
The MV4;11 cell lines were purchased from the cell bank of the Chinese Academy of Sciences, IMDM medium (Gibco, catalog number 12440), fetal bovine serum (Gibco, catalog number 10099141C), penicillin-streptomycin antibiotics (Gibco, catalog number 15140122), DMSO (Sigma, catalog number D2650), Celltiter-Glo kit (CTG) (Promega, catalog number G7573), 384-well clear flat-bottom black cell culture plate (Corning, catalog number 3764), D300e digital dispenser (Tecan, catalog number D300e), SpectraMax i3x microplate reader (MOLECULAR DEVICES, catalog number i3x)
MV4;11 cell was cultivated in IMDM, 10% fetal bovine serum, 1% penicillin-streptomycin antibiotics, and cell density was kept less than 1.0*10E6 cells per ml to ensure that it was always in logarithmic growth phase. Cell viability was greater than 95%.
The compounds to be tested was diluted by 3 times from 10 uM with DMSO to 9 concentrations. 60 nl diluted compound was added to the cell culture plate and three duplicates were set up.
The prepared MV4;11 cell suspension was added to the 384-well plate, and 20 microliters of cell suspension was added per well, i.e., each well contained 2000 MV4;11 cells, of which the final concentration of DMSO was 0.3%. The cell culture plate was placed in 37° C. and incubated in a 5% carbon dioxide incubator for 72 hours.
20 μL of Promega CellTiter-Glo reagent was added to per well, and the plate was incubated at room temperature for 10 minutes when the luminescence signals were stable. SpectraMax i3x microplate reader was used to read signals.
The original data was converted into inhibition rate, and the IC50 value (half inhibition concentration) of the compound was determined by fitting the nonlinear four-parameter curve.
As to `CCc1nc2c(N)ncc(-c3cnn(C4C[C@H]5CC[C@@H](C4)N5C)c3)c2nc1N[C@@H]1CC[C@H](O)C1` (single isomer, unassigned) [Compound 164], the IC50 was in the range of 10 to 100 nM.

As to `CCc1nc2c(N)ncc(-c3cnn(C4CCC(C)(O)CC4)c3)c2nc1N[C@@H]1CC[C@H](O)C1` (single isomer, unassigned) [Compound 284], the IC50 was not above 10 nM.

Consider `CCc1nc2c(N)ncc(-c3ccc(N4CCC(N5CCN(C)CC5)CC4)c(OC)c3)c2nc1NC1CCC(O)CC1` (stereo not drawn) [Compound 82], for which the IC50 lay within 10 to 100 nM.

As to `CCc1nc2c(N)ncc(-c3cnn(C4CCOCC4)c3)c2nc1N[C@@H]1CC[C@H](O)C1` [Compound 191], the IC50 was not above 10 nM.

For `CCc1nc2c(N)ncc(-c3cnn(-c4ccc(C#N)cn4)c3)c2nc1N[C@@H]1CC[C@H](O)C1` [Compound 300], the IC50 was not above 10 nM.

The assay is the same for the next values; noted with them: IC50 class, read-out: Inhibitory activity of cell proliferation MV4;11.
Take `CCc1nc2c(N)ncc(-c3cnn(C4C[C@H]5CC[C@@H](C4)N5)c3)c2nc1N[C@@H]1CC[C@H](O)C1` (single isomer, unassigned) [Compound 162]: the IC50 fell in the range of 100 to 500 nM.

Regarding `CCc1nc2c(N)ncc(-c3cnn(C4C[C@H]5CC[C@@H](C4)N5)c3)c2nc1N[C@@H]1CC[C@H](O)C1` (single isomer, unassigned) [Compound 163], the IC50 fell in the range of 10 to 100 nM.

Regarding `CCc1nc2c(N)ncc(-c3cnn(C4C[C@H]5CC[C@@H](C4)N5C)c3)c2nc1N[C@@H]1CC[C@H](O)C1` (single isomer, unassigned) [Compound 165], the IC50 is not above 10 nM.
